Results on 28 compounds are retold here after US20070004660A1, “Synergistic Modulation of Flt3 Kinase Using Alkylquinolines and Alkylquinazolines” (priority 2005, published 2007).

In general, IC50 refers to the point on the concentration scale where inhibition reaches its midpoint. Higher therefore signals lower potency.

Molecules are shown by their SMILES. A value given as a limit tells only on which side of the number the result lay.

This experiment has as its target T1, wild-type FLT3 receptor (Homo sapiens, UniProt P36888).
T1 construct: host or cells: Baf3 (murine B cell lymphoma line), stably transfected
T1 sequence (P36888 27-993): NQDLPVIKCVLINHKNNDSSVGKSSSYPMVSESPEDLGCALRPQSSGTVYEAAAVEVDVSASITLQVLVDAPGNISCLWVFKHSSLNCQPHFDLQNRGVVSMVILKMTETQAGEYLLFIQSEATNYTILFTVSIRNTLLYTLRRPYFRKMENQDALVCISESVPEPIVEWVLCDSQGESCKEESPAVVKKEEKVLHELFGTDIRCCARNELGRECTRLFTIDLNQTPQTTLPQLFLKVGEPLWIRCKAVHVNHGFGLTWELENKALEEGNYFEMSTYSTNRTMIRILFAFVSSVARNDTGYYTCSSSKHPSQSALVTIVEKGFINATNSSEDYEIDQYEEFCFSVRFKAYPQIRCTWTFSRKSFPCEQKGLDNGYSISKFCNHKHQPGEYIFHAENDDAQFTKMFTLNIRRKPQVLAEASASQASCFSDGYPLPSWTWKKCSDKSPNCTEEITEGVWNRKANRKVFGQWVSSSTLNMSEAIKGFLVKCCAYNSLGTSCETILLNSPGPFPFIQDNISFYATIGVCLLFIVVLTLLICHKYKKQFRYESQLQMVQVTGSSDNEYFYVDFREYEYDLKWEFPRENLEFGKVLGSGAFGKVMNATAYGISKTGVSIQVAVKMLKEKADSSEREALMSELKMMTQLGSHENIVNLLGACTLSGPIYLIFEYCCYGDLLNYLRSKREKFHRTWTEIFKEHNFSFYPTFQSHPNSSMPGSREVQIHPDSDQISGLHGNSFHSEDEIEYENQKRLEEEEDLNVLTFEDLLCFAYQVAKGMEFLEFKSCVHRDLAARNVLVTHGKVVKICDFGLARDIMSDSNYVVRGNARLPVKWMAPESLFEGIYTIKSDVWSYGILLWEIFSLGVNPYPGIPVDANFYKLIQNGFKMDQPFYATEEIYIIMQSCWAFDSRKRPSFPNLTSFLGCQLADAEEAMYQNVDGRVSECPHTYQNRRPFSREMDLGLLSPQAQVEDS
As to the kind of experiment: Cell-based FLT3 receptor ELISA (FLT ligand-induced phosphorylation in Baf3 FLT3 cells). To be noted: 100 ng/mL Flt ligand, uncertainty ±20%. In short, it runs like this:
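Receptor phosphotyrosine measured by sandwich ELISA (anti-FLT3 capture, HRP anti-pTyr, luminescence) in FLT3-transfected murine Baf3 cells given 1 h compound pretreatment and 10 min 100 ng/mL FLT ligand after overnight low-serum starvation; triplicates, IC50 from nonlinear regression.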
Background: ELISA stands for enzyme-linked immunosorbent assay.
As for `COc1cc2ncnc(C3CCN(C(=O)Nc4ccc(C(C)(C)C)cc4)CC3)c2cc1OC` [Example 53, 4-(6,7-Dimethoxy-quinazolin-4-yl)-piperidine-1-carboxylic acid (4-tert-butyl-phenyl)-amide], the IC50 was determined as 5 nM. This counts as single-digit nanomolar.
Compound `CS(=O)(=O)NCCCOc1ccc2c(C3CCN(C(=O)Nc4ccc(N5CCOCC5)nc4)CC3)ncnc2c1` [Example 87, 4-[7-(3-Methanesulfonylamino-propoxy)-quinazolin-4-yl]-piperidine-1-carboxylic acid (6-morpholin-4-yl-pyridin-3-yl)-amide] returned an IC50 of 23 nM.
The result for `O=C(Nc1ccc(N2CCOCC2)nc1)N1CCC(c2ncnc3cc(OCCN4CCOC4=O)ccc23)CC1` [Example 91, 4-{7-[2-(2-Oxo-oxazolidin-3-yl)-ethoxy]-quinazolin-4-yl}-piperidine-1-carboxylic acid (6-morpholin-4-yl-pyridin-3-yl)-amide] reads 6 nM; that for `COc1cc2ncnc(C3CCN(C(=O)Nc4ccc(OC(C)C)nc4)CC3)c2cc1OC` [Example 56, 4-(6,7-Dimethoxy-quinazolin-4-yl)-piperidine-1-carboxylic acid (6-isopropoxy-pyridin-3-yl)-amide], 10 nM; that for `CC(C)Oc1ccc(NC(=O)N2CCC(c3ccnc4ccccc34)CC2)cc1` [Example 6, 4-Quinolin-4-yl-piperidine-1-carboxylic acid (4-isopropoxy-phenyl)-amide], 40 nM.
The result for `CN1CCN(CCCOc2ccc3c(C4CCN(C(=O)Nc5ccc(N6CCCC6)nc5)CC4)ncnc3c2)CC1` [Example 104, 4-{7-[3-(4-Methyl-piperazin-1-yl)-propoxy]-quinazolin-4-yl}-piperidine-1-carboxylic acid (6-pyrrolidin-1-yl-pyridin-3-yl)-amide] reads 16 nM; that for `COc1cc2ncnc(C3CCN(C(=O)Nc4ccccc4)CC3)c2cc1OC` [Example 45, 4-(6,7-Dimethoxy-quinazolin-4-yl)-piperidine-1-carboxylic acid phenylamide], more than 3000 nM; that for `CCOc1ccc(NC(=O)N2CCC(c3ncnc4cc(OC)c(OC)cc34)CC2)cc1` [Example 44, 4-(6,7-Dimethoxy-quinazolin-4-yl)-piperidine-1-carboxylic acid (4-ethoxy-phenyl)-amide], 163 nM.
The result for `CC(C)Oc1ccc(NC(=O)N2CCC(c3ncnc4cc(N5CCN(C)CC5)ccc34)CC2)cc1` [Example 103, 4-[7-(4-Methyl-piperazin-1-yl)-quinazolin-4-yl]-piperidine-1-carboxylic acid (4-isopropoxy-phenyl)-amide] reads 13 nM; that for `CC(C)Oc1ccc(NC(=O)N2CCC(c3ncnc4ccc(OCCCN5CCN(C)CC5)cc34)CC2)cc1` [Example 76, 4-{6-[3-(4-Methyl-piperazin-1-yl)-propoxy]-quinazolin-4-yl}-piperidine-1-carboxylic acid (4-isopropoxy-phenyl)-amide], 96 nM; that for `CC(C)c1ccc(NC(=O)N2CCC(c3ncnc4ccccc34)CC2)cc1` [Example 7, 4-Quinazolin-4-yl-piperidine-1-carboxylic acid (4-isopropyl-phenyl)-amide], 367 nM.
The compound `CS(=O)(=O)NCCCOc1ccc2c(C3CCN(C(=O)Nc4ccc(N5CCOCC5)cc4)CC3)ncnc2c1` [Example 66, 4-[7-(3-Methanesulfonylamino-propoxy)-quinazolin-4-yl]-piperidine-1-carboxylic acid (4-morpholin-4-yl-phenyl)-amide] registered an IC50 of 13 nM.
As for `O=C(Nc1ccc(N2CCOCC2)cc1)N1CCC(c2ncnc3cc(OCCC4CCCCN4)ccc23)CC1` (stereo not shown) [Example 98, 4-[7-(2-Piperidin-2-yl-ethoxy)-quinazolin-4-yl]-piperidine-1-carboxylic acid (4-morpholin-4-yl-phenyl)-amide], the figure is 86 nM; as for `COCCCOc1ccc2c(C3CCN(C(=O)Nc4ccc(N5CCOCC5)cc4)CC3)ncnc2c1` [Example 78, 4-[7-(3-Methoxy-propoxy)-quinazolin-4-yl]-piperidine-1-carboxylic acid (4-morpholin-4-yl-phenyl)-amide], 20 nM; as for `O=C(Nc1ccc(N2CCOCC2)cc1)N1CCC(c2ncnc3cc(OCCCN4CCN(CCO)CC4)ccc23)CC1` [Example 116, 4-(7-{3-[4-(2-Hydroxy-ethyl)-piperazin-1-yl]-propoxy}-quinazolin-4-yl)-piperidine-1-carboxylic acid (4-morpholin-4-yl-phenyl)-amide], 25 nM.
The result for `COc1cc2ncnc(C3CCN(C(=O)NC4CCC(C(C)(C)C)CC4)CC3)c2cc1OC` (stereo not shown) [Example 54, 4-(6,7-Dimethoxy-quinazolin-4-yl)-piperidine-1-carboxylic acid (4-tert-butyl-cyclohexyl)-amide] reads 266 nM; that for `CC(C)Oc1ccc(NC(=O)N2CCC(c3ncnc4cc(OCC5CCN(C)CC5)ccc34)CC2)cc1` [Example 93, 4-[7-(1-Methyl-piperidin-4-ylmethoxy)-quinazolin-4-yl]-piperidine-1-carboxylic acid (4-isopropoxy-phenyl)-amide], 1 nM; that for `O=C(Nc1ccc(N2CCOCC2)cc1)N1CCC(c2ncnc3cc(OCCN4CCOCC4)ccc23)CC1` [Example 96, 4-[7-(2-Morpholin-4-yl-ethoxy)-quinazolin-4-yl]-piperidine-1-carboxylic acid (4-morpholin-4-yl-phenyl)-amide], 243 nM.
The result for `COc1cc2ncnc(C3CCN(C(=O)Nc4ccc(-c5ccc(Cl)nc5)cc4)CC3)c2cc1OC` [Example 60, 4-(6,7-Dimethoxy-quinazolin-4-yl)-piperidine-1-carboxylic acid [4-(6-chloro-pyridin-3-yl)-phenyl]-amide] reads 46 nM; that for `CN1CCC(COc2ccc3c(C4CCN(C(=O)Nc5ccc(N6CCOCC6)cc5)CC4)ncnc3c2)CC1` [Example 94, 4-[7-(1-Methyl-piperidin-4-ylmethoxy)-quinazolin-4-yl]-piperidine-1-carboxylic acid (4-morpholin-4-yl-phenyl)-amide], 11 nM; that for `COc1cc2ncnc(C3CCN(C(=O)Nc4ccc(C5=CCNCC5)cc4)CC3)c2cc1OC` [Example 62, 4-(6,7-Dimethoxy-quinazolin-4-yl)-piperidine-1-carboxylic acid [4-(1,2,3,6-tetrahydro-pyridin-4-yl)-phenyl]-amide], 976 nM.
The compound `CC(C)Oc1ccc(NC(=O)N2CCC(c3ncnc4ccccc34)CC2)cc1` [Example 8, 4-Quinazolin-4-yl-piperidine-1-carboxylic acid (4-isopropoxy-phenyl)-amide] returned an IC50 of 851 nM.
`CC(C)Oc1ccc(NC(=O)N2CCC(c3ncnc4cc(OCCCOS(C)(=O)=O)ccc34)CC2)cc1` [Example 121, Methanesulfonic acid 3-{4-[1-(4-isopropoxy-phenylcarbamoyl)-piperidin-4-yl]-quinazolin-7-yloxy}-propyl ester] came in with a concentration for half-maximal inhibition (IC50) of 117 nM. This IC50 is about 7.3-fold lower than that of the compound before.
As for `CC(C)Oc1ccc(NC(=O)N2CCC(c3ncnc4cc(OCCCN5CCCC5=O)ccc34)CC2)cc1` [Example 67, 4-{7-[3-(2-Oxo-pyrrolidin-1-yl)-propoxy]-quinazolin-4-yl}-piperidine-1-carboxylic acid (4-isopropoxy-phenyl)-amide], the figure is 3 nM; as for `O=C1CCCN1CCOc1ccc2c(C3CCN(C(=O)Nc4ccc(N5CCCC5)cc4)CC3)ncnc2c1` [Example 74, 4-{7-[2-(2-Oxo-pyrrolidin-1-yl)-ethoxy]-quinazolin-4-yl}-piperidine-1-carboxylic acid (4-pyrrolidin-1-yl-phenyl)-amide], 12 nM.
`O=C(Nc1ccc(N2CCOCC2)cc1)N1CCC(c2ncnc3cc(OCCCO)ccc23)CC1` [Example 77, 4-[7-(3-Hydroxy-propoxy)-quinazolin-4-yl]-piperidine-1-carboxylic acid (4-morpholin-4-yl-phenyl)-amide] returned an IC50 of 98 nM.
The result for `O=C(Nc1ccc(N2CCCC2)nc1)N1CCC(c2ncnc3cc(OCCN4CCOC4=O)ccc23)CC1` [Example 92, 4-{7-[2-(2-Oxo-oxazolidin-3-yl)-ethoxy]-quinazolin-4-yl}-piperidine-1-carboxylic acid (6-pyrrolidin-1-yl-pyridin-3-yl)-amide] reads 12 nM; that for `O=C1CCCN1CCOc1ccc2c(C3CCN(C(=O)Nc4ccc(N5CCOCC5)cc4)CC3)ncnc2c1` [Example 85, 4-{7-[2-(2-Oxo-pyrrolidin-1-yl)-ethoxy]-quinazolin-4-yl}-piperidine-1-carboxylic acid (4-morpholin-4-yl-phenyl)-amide], 75 nM.
